These results are taken from article PMC6155332, “Antimalarials with Benzothiophene Moieties as Aminoquinoline Partners” (Molecules : A Journal of Synthetic Chemistry and Natural …, 2017).

Each structure is given as a SMILES string. “And” between values parts separate entries of the source, which are not always exact repeats. Equal entries are not always repeated. Where two headings read alike, the source gives them in different places.

Series [1] relates to P. falciparum D6 (CQ susceptible (CQS) strain). More on the design: method as in PMID 26640981, PMID 25801154. Conditions: previously reported compounds; ref [27],[28]; cited from earlier work.
Another series has as its system P. berghei (ANKA). In words: Modified Thompson test, P. berghei mouse efficacy. It counts as in vivo, Plasmodium berghei. Conditions: for Parasitemia D21: day 21; for Parasitemia D24: day 24; for Mean Survival Time (MST, Days) / Mice Alive on Day 31 / Mice Dead/Day Died: infected mice; for Parasitemia D25: day 25. The method, then:
In a separate host toxicity study, benzothiophene 25 was subjected to in vivo toxicity evaluation. […]
The P. berghei (ANKA) mouse efficacy tests were conducted using a modified version of the Thompson test. Groups of five mice were inoculated intraperitoneally with erythrocytes infected with P. berghei on day 0. Drugs were suspended in 0.5% hydroxyethylcellulose-0.1% Tween 80 and administered orally once a day beginning on day 3 post infection. […] Cure was defined as survival (with no parasitemia) until day 31 post-treatment. Parasitemia was determined by thin-blood Giemsa-stained smears prepared from mice tail blood of each animal on days 0, 3, 6, 10, 13, 17, 20, 24, 27, and 31 (postinfection). The slides were examined under a light microscope.

In another series the test system is healthy mice. In words: Host toxicity study in healthy mice. It counts as in vivo. Conditions: 160 mg/kg/day × 3 days; for Mice survived in host toxicity study: groups of 5 healthy mice; for Host toxicity (toxic / non-toxic): healthy mice, orally. On the procedure: In a separate host toxicity study, groups of five healthy mice were administered 160 mg/kg/day × 3 days of the investigational compounds and individually monitored for behavior and appearance two times a day for 31 days. No toxicity was defined as survival past day 31 with no overt clinical manifestations of toxicity (changes in behavior and appearance).

The subject of series [2] is HepG2 (hepatocellular carcinoma) cell line. In words: Compound toxicity in HepG2 cell line. It counts as cell-based, human. Conditions: for IC50: Homo sapiens, HepG2, hepatocellular carcinoma cells; for SI HepG2/D6 (selectivity index): IC50 HepG2 / IC50 D6. On the procedure:
To investigate possible toxicity issues, the synthesized compounds were evaluated in vitro against a human hepatoma cell line (HepG2).
Synthesized aminoquinolines were screened in vitro against P. falciparum strains: CQ and MFQ susceptible strain D6 (clone of Sierra Leone/UNC isolate), CQ resistant but MFQ susceptible strain W2 (clone of Indochina isolate), and CQ and MFQ resistant strain TM91C235 (clone of South East Asian isolate) using the Malaria SYBR Green Fluorescence Assay. Full method details are given in Supplementary Materials I. Assessment of compound toxicity in a HepG2 (hepatocellular carcinoma) cell line followed the protocol described in Ref. [40].

In series [3] the test system is P. falciparum TM91C235 (Thailand, multidrug-resistant (MDR) strain). The series is described as follows: Malaria SYBR Green Fluorescence Assay, TM91C235 strain. In kind it is cell-based. Conditions: Plasmodium falciparum, read-out: In Vitro Antimalarial Activity (P. falciparum, IC50, nM) C235.
Series [4] deals with P. falciparum D6 (CQ susceptible (CQS) strain). The series is described as follows: Malaria SYBR Green Fluorescence Assay, D6 strain. It counts as cell-based. The following applies: Plasmodium falciparum; CQ susceptible African D6 clone; read-out: In Vitro Antimalarial Activity (P. falciparum, IC50, nM) D6.
The subject of series [5] is P. falciparum W2 (CQ resistant (CQR) strain). In words: microbe, parasite or virus in culture. The following applies: for RI W2/D6 (resistance index): IC50 W2 / IC50 D6; for IC50: Plasmodium falciparum, W2, read-out: In Vitro Antimalarial Activity (P. falciparum, IC50, nM) W2. It counts as cell-based, Plasmodium falciparum.
Series [6] has the same test system. The arrangement: method as in PMID 26640981. Conditions: previously reported compounds; ref [27]; cited from earlier work.
The subject of series [7] is HepG2 (hepatocellular carcinoma) cell line. The arrangement: method as in PMID 26640981. Conditions: previously reported compounds; ref [27]; cited from earlier work.
The mark [8] stands for this setting: 160 mg/kg/day p.o., days 3–5 postinfection.
Where [9] appears, read: 160 mg/kg/day p.o., days 3–5 postinfection, 160 mg/kg/day.
Setting [10] is: 40 mg/kg/day p.o., days 3–6 postinfection.
[11] abbreviates: 80 mg/kg/day p.o., days 3–6 postinfection.

With `Fc1ccc2scc(CNCCCCNc3ccnc4cc(Cl)ccc34)c2c1` [Compound 2], the half-inhibitory concentration (IC50) (usually the point on the concentration scale where inhibition reaches its midpoint) in [1] was 0.01 µM.
Consider `N#Cc1ccc2scc(CNCCCNc3ccnc4cc(Cl)ccc34)c2c1` [Compound 3], for which, in series [1], the IC50 was 0.005 µM.
For the compound `N#Cc1ccc(-c2ccc(CNCCCNc3ccnc4cc(Cl)ccc34)s2)cc1` [Compound 4], the half-maximal inhibitory concentration (IC50) in series [1] is 0.002 µM.
Regarding `COc1ccc(-c2ccc(CNCCCNc3ccnc4cc(Cl)ccc34)s2)cc1` [Compound 5], the half-maximal inhibitory concentration (IC50) in series [1] was 0.007 µM.
Regarding `Cc1ccc(-c2ccc(CNCCNc3ccnc4cc(Cl)ccc34)s2)cc1` [Compound 6], the IC50 in [1] was 0.005 µM.
With `CC(CCCNCc1ccc(-c2csc3ccc(F)cc23)cc1)Nc1ccnc2cc(Cl)ccc12` (centres unmarked) [Compound 25], in the series on P. berghei (ANKA) (160 mg/kg/day p.o. days 3–5), the “Parasitemia D21” value is on record as 2.7% and the “Parasitemia D24” value worked out at 52%. In addition, the “Parasitemia D28” value in the series on P. berghei (ANKA) (160 mg/kg/day p.o. days 3–5, day 28) is recorded as 72%. Besides, the “Parasitemia D31” value with P. berghei (ANKA) (160 mg/kg/day p.o. days 3–5, day 31 (end of study)) was found to be 79%. Further, in the series on P. berghei (ANKA) (setting [8]), the “Mean Survival Time (MST, Days)” value amounted to 20.8 days. In addition, in the series with P. berghei (ANKA) (setting [9]), the “Mice Alive on Day 31” value is “only one surviving 31 days but with parasitemia and 1/4”; the “Mice Dead/Day Died” value is 2/17 and 1/18. Further, in the series with healthy mice, the “Mice survived in host toxicity study” value is recorded as 5 and the “Host toxicity (toxic / non-toxic)” value is given as “non-toxic”. For the same compound, in series [2], half-maximal inhibition (IC50) required 2.09 µM and the “SI HepG2/D6 (selectivity index)” value is reported as 29. In addition, the IC50 in series [3] is 121 nM. Moreover, in series [4], the IC50 was 71 nM. Moreover, in series [5], the “RI W2/D6 (resistance index)” value was determined as 0.2 and the IC50 worked out at 12 nM.
For the compound `N#Cc1ccc(-c2ccc(-c3ccc(CNCCCCCCCCNc4ccnc5cc(Cl)ccc45)cc3)s2)cc1` [Compound 42], the “Parasitemia D24” value in the series on P. berghei (ANKA) (160 mg/kg/day p.o. days 3–5) was 75%. In the series with P. berghei (ANKA) (setting [8]), the “Mean Survival Time (MST, Days)” value amounted to 18.6 days and the “Mice Alive on Day 31” value was 0/5. For the same compound, in the series with P. berghei (ANKA) (setting [9]), the “Mice Dead/Day Died” value was 1/9 and 1/13 and 1/20 and 1/23 and 1/28. In the series on healthy mice, the “Mice survived in host toxicity study” value was 5 and the “Host toxicity (toxic / non-toxic)” value is listed as “non-toxic”. Further, in series [2], the midpoint of inhibition, the IC50, lay at 2.09 µM and the “SI HepG2/D6 (selectivity index)” value came out at 38. For the same compound, in series [3], the 50% inhibitory concentration (IC50) worked out at 30 nM. Further, the IC50 in [4] is 55 nM. In series [5], the “RI W2/D6 (resistance index)” value is listed as 0.2 and the half-maximal inhibitory concentration (IC50) is 12 nM.
As to `CN(CCCCCCCCNc1ccnc2ccccc12)Cc1ccc(-c2ccc(-c3ccc(C#N)cc3)s2)cc1` [Compound 46], the results for the “Parasitemia D25” value in the series on P. berghei (ANKA) (40 mg/kg/day p.o. days 3–6) and in the series on P. berghei (ANKA) (80 mg/kg/day p.o. days 3–6) were 43% and 41%, respectively. The “Parasitemia D14” value in the series on P. berghei (ANKA) (80 mg/kg/day p.o. days 3–6, day 14) is 4.7%. Further, the “Parasitemia D18” value in the series on P. berghei (ANKA) (80 mg/kg/day p.o. days 3–6, day 18) came out at 12%. The “Parasitemia D21” value in the series with P. berghei (ANKA) (80 mg/kg/day p.o. days 3–6) is reported as 35%. In addition, the “One mouse survival until day” value in the series on P. berghei (ANKA) (80 and 40 mg/kg/day × 4 days (both doses)) came out at 25 days. Besides, the results for the “Mean Survival Time (MST, Days)” value in the series with P. berghei (ANKA) (setting [10]) and with P. berghei (ANKA) (setting [11]) were 15.8 days and 14.4 days, respectively. For the same compound, the “Mice Alive on Day 31” value in the series with P. berghei (ANKA) (setting [10]) and in the series with P. berghei (ANKA) (setting [11]) was 0/5 in each case. The “Mice Dead/Day Died” value is 1/10 and 2/11 and 1/22 and 1/25 in the series with P. berghei (ANKA) (40 mg/kg/day p.o., days 3–6 postinfection, 40 mg/kg/day); 1/7 and 1/12 and 1/13 and 1/14 and 1/26 in the series with P. berghei (ANKA) (80 mg/kg/day p.o., days 3–6 postinfection, 80 mg/kg/day). In the series with healthy mice, the “Mice survived in host toxicity study” value was 5. Besides, the “Host toxicity (toxic / non-toxic)” value with healthy mice is on record as “non-toxic”. Further, the 50% inhibitory concentration (IC50) in [2] stood at 2.57 µM; in series [3], 13 nM; in series [4], 7 nM; in series [5] it was 5 nM. Further, the “SI HepG2/D6 (selectivity index)” value in series [2] amounted to 367. Moreover, the “RI W2/D6 (resistance index)” value in series [5] is 0.7.
`Clc1ccc2c(NCCCNCc3csc4ccccc34)ccnc2c1` [Compound 53]: the “Host toxicity (toxic / non-toxic)” value in the series with healthy mice was “toxic”. Also, the figures for the IC50 in series [6] and in series [1] were 0.024 µM and 0.007 µM, respectively. Further, the “SI(HepG2/D6)” value in series [7] is reported as 1111.
